Like-named read-outs stand apart in the source and are kept apart here.
Experiments:
select kinases = assay: KINOMEscan in vitro competition binding assay for select kinases; settings: for KINOMEscan competition binding, inhibition of AURKB: kinase AURKB; for KINOMEscan competition binding, inhibition of AXL: kinase AXL; for KINOMEscan competition binding, inhibition of BLK: kinase BLK; for KINOMEscan competition binding, inhibition of CAMK4: kinase CAMK4; for KINOMEscan competition binding, inhibition of CDK8: kinase CDK8; for KINOMEscan competition binding, inhibition of CDK11: kinase CDK11; for KINOMEscan competition binding, inhibition of CSF1R: kinase CSF1R; for KINOMEscan competition binding, inhibition of EIF2AK1: kinase EIF2AK1; for KINOMEscan competition binding, inhibition of EPHB6: kinase EPHB6; for KINOMEscan competition binding, inhibition of FLT3: kinase FLT3; for KINOMEscan competition binding, inhibition of HIPK4: kinase HIPK4; for KINOMEscan competition binding, inhibition of LOK: kinase LOK; for KINOMEscan competition binding, inhibition of MAP3K2: kinase MAP3K2; for KINOMEscan competition binding, inhibition of MAP3K3: kinase MAP3K3; for KINOMEscan competition binding, inhibition of MAP3K15: kinase MAP3K15; for KINOMEscan competition binding, inhibition of MEK5: kinase MEK5; for KINOMEscan competition binding, inhibition of MKNK2: kinase MKNK2; for KINOMEscan competition binding, inhibition of NEK1: kinase NEK1; for KINOMEscan competition binding, inhibition of NEK5: kinase NEK5; for KINOMEscan competition binding, inhibition of PIK3C2B: kinase PIK3C2B; for KINOMEscan competition binding, inhibition of RIOK2: kinase RIOK2; for KINOMEscan competition binding, inhibition of RIPK1: kinase RIPK1; for KINOMEscan competition binding, inhibition of RIPK2: kinase RIPK2; for KINOMEscan competition binding, inhibition of RIPK5: kinase RIPK5; for KINOMEscan competition binding, inhibition of TESK1: kinase TESK1; for KINOMEscan competition binding, inhibition of TIE2: kinase TIE2; for KINOMEscan competition binding, inhibition of TRKA: kinase TRKA; for KINOMEscan competition binding, inhibition of TRKB: kinase TRKB; for KINOMEscan competition binding, inhibition of TRKC: kinase TRKC; for KINOMEscan competition binding, inhibition of VRK2: kinase VRK2; for KINOMEscan competition binding, inhibition of YANK1: kinase YANK1; for KINOMEscan competition binding, inhibition of YANK2: kinase YANK2; for KINOMEscan competition binding, inhibition of YSK4: kinase YSK4
[1] = test system: GFP-eIF2α in HEK293 cells; assay: PERK cellular assay, TR-FRET in HEK293-EGFP-eIF2a cells after tunicamycin-induced ER stress; format: cell-based
In short: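 Compounds were added 30 min before a 2 h tunicamycin ([…]) challenge of lentivirally made GFP-eIF2α HEK293 cells, 5000/well; lysate TR-FRET ratio was the read-out.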

[2] = biological target: T1, EIF2AK3 (PERK) catalytic domain (amino acids 536-1116) (Homo sapiens, UniProt Q9NZJ5); assay: PERK in vitro activity assay (isolated), TR-FRET kinase assay; format: biochemical
T1 construct: EIF2AK3 (PERK) catalytic domain (amino acids 536-1116)
T1 sequence (Q9NZJ5 536-1116): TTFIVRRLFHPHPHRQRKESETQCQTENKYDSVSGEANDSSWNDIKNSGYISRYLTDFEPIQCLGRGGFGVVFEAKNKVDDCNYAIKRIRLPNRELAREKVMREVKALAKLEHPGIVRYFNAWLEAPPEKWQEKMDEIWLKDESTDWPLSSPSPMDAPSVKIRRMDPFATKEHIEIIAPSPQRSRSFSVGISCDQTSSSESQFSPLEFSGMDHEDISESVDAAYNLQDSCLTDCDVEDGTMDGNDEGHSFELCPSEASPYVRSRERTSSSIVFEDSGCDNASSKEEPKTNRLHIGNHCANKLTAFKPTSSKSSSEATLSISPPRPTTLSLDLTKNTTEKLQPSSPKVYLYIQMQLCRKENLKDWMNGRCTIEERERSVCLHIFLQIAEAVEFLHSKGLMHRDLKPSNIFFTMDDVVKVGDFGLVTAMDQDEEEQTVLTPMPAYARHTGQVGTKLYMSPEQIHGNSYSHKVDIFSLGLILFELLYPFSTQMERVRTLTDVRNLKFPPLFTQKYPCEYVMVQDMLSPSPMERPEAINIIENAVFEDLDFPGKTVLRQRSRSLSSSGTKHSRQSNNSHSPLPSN
In short: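 TR-FRET read-out: after EDTA stop (10 mM final), Tb-labelled phospho-eIF2a antibody (2 nM) for 90 min; IC50 via 4-parameter nonlinear fit. Reaction: PERK aa 536-1116, GFP-eIF2a 100-200 nM, HEPES pH 7.5 with MgCl2/EGTA/Brij-35, 45 min, room temperature, started by enzyme.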

Aqueous solubility = format: physicochemical
[3] = HEK293-EGFP-eIF2a cells, tunicamycin 2 hours, read-out: Cellular eIF2α IC50
[4] = isolated PERK enzyme, 1.5 μM ATP, read-out: Biochemical IC50
[5] = Homo sapiens, HEK293, cellular potency, Table 2, read-out: P-EIF2α IC50
[6] = biochemical potency, Table 2, read-out: PERK IC50

IC50 [2, 4] [nM]	SMILES	KINOMEscan competition binding, inhibition of AURKB (select kinases)	KINOMEscan competition binding, inhibition of AXL (select kinases)	KINOMEscan competition binding, inhibition of BLK (select kinases)	KINOMEscan competition binding, inhibition of CAMK4 (select kinases)	KINOMEscan competition binding, inhibition of CDK8 (select kinases)	KINOMEscan competition binding, inhibition of CDK11 (select kinases)	KINOMEscan competition binding, inhibition of CSF1R (select kinases)	KINOMEscan competition binding, inhibition of EIF2AK1 (select kinases)	KINOMEscan competition binding, inhibition of EPHB6 (select kinases)	KINOMEscan competition binding, inhibition of FLT3 (select kinases)	KINOMEscan competition binding, inhibition of HIPK4 (select kinases)	KINOMEscan competition binding, inhibition of LOK (select kinases)	KINOMEscan competition binding, inhibition of MAP3K2 (select kinases)	KINOMEscan competition binding, inhibition of MAP3K3 (select kinases)	KINOMEscan competition binding, inhibition of MAP3K15 (select kinases)	KINOMEscan competition binding, inhibition of MEK5 (select kinases)	KINOMEscan competition binding, inhibition of MKNK2 (select kinases)	KINOMEscan competition binding, inhibition of NEK1 (select kinases)	IC50 [1, 3] [nM]	also measured
1 to 25	Cc1nc(N)c2c(-c3ccc(NC(=O)C(O)c4cccc(F)c4)cc3C)cn(C)c2n1 (single isomer, unassigned) [Example 1, N-(4-(4-amino-2,7-dimethyl-7H-pyrrolo[2,3-d]pyrimidin-5-yl)-3-methylphenyl)-2-(3-fluorophenyl)-2-hydroxyacetamide]	No Inhibition (“No Inhibition” refers to less than 50% inhibition)	No Inhibition (“No Inhibition” refers to less than 50% inhibition)	No Inhibition (“No Inhibition” refers to less than 50% inhibition)	No Inhibition (“No Inhibition” refers to less than 50% inhibition)	No Inhibition (“No Inhibition” refers to less than 50% inhibition)	No Inhibition (“No Inhibition” refers to less than 50% inhibition)	No Inhibition (“No Inhibition” refers to less than 50% inhibition)	No Inhibition (“No Inhibition” refers to less than 50% inhibition)	No Inhibition (“No Inhibition” refers to less than 50% inhibition)	No Inhibition (“No Inhibition” refers to less than 50% inhibition)	No Inhibition (“No Inhibition” refers to less than 50% inhibition)	No Inhibition (“No Inhibition” refers to less than 50% inhibition)	No Inhibition (“No Inhibition” refers to less than 50% inhibition)	No Inhibition (“No Inhibition” refers to less than 50% inhibition)	No Inhibition (“No Inhibition” refers to less than 50% inhibition)	No Inhibition (“No Inhibition” refers to less than 50% inhibition)	No Inhibition (“No Inhibition” refers to less than 50% inhibition)	No Inhibition (“No Inhibition” refers to less than 50% inhibition)	26 to 50	KINOMEscan competition binding, inhibition of NEK5 (select kinases): No Inhibition (“No Inhibition” refers to less than 50% inhibition); KINOMEscan competition binding, inhibition of PIK3C2B (select kinases): No Inhibition (“No Inhibition” refers to less than 50% inhibition); KINOMEscan competition binding, inhibition of RIOK2 (select kinases): No Inhibition (“No Inhibition” refers to less than 50% inhibition); KINOMEscan competition binding, inhibition of RIPK1 (select kinases): No Inhibition (“No Inhibition” refers to less than 50% inhibition); KINOMEscan competition binding, inhibition of RIPK2 (select kinases): No Inhibition (“No Inhibition” refers to less than 50% inhibition); KINOMEscan competition binding, inhibition of RIPK5 (select kinases): No Inhibition (“No Inhibition” refers to less than 50% inhibition); KINOMEscan competition binding, inhibition of TESK1 (select kinases): No Inhibition (“No Inhibition” refers to less than 50% inhibition); KINOMEscan competition binding, inhibition of TIE2 (select kinases): No Inhibition (“No Inhibition” refers to less than 50% inhibition); KINOMEscan competition binding, inhibition of TRKA (select kinases): No Inhibition (“No Inhibition” refers to less than 50% inhibition); KINOMEscan competition binding, inhibition of TRKB (select kinases): No Inhibition (“No Inhibition” refers to less than 50% inhibition); KINOMEscan competition binding, inhibition of TRKC (select kinases): No Inhibition (“No Inhibition” refers to less than 50% inhibition); KINOMEscan competition binding, inhibition of VRK2 (select kinases): No Inhibition (“No Inhibition” refers to less than 50% inhibition); KINOMEscan competition binding, inhibition of YANK1 (select kinases): No Inhibition (“No Inhibition” refers to less than 50% inhibition); KINOMEscan competition binding, inhibition of YANK2 (select kinases): No Inhibition (“No Inhibition” refers to less than 50% inhibition); KINOMEscan competition binding, inhibition of YSK4 (select kinases): No Inhibition (“No Inhibition” refers to less than 50% inhibition); Kinase selectivity (select kinases; versus Example 9 and GSK2656157, KINOMEscan, Treespot analysis): more selective
	Cc1cc(NC(=O)Cc2ccccc2)ccc1-c1cn(C)c2ncnc(N)c12 [Compound A, reference compound]																				IC50 [1, 5]: 41 nM; Aq Sol (Aqueous solubility): 14 µM; IC50 [2, 6]: 6 nM
1 to 25	Cc1cc(NC(=O)C(O)c2ccccc2)ccc1-c1cn(C)c2ncnc(N)c12 (stereo not shown) [Example 6, N-(4-(4-amino-7-methyl-7H-pyrrolo[2,3-d]pyrimidin-5-yl)-3-methylphenyl)-2-hydroxy-2-phenylacetamide]																			1 to 25	IC50 [1, 5]: 23 nM; Aq Sol (Aqueous solubility): 57 µM; IC50 [2, 6]: 2 nM
1 to 25	Cc1cc(NC(=O)C(O)c2cccc(F)c2)ccc1-c1cn(C)c2ncnc(N)c12 (stereo not shown) [Example 9, N-(4-(4-amino-7-methyl-7H-pyrrolo[2,3-d]pyrimidin-5-yl)-3-methylphenyl)-2-(3-fluorophenyl)-2-hydroxyacetamide]	Inhibition (“Inhibition” refers to greater than 50% inhibition)	No inhibition	Inhibition (“Inhibition” refers to greater than 50% inhibition)	Inhibition (“Inhibition” refers to greater than 50% inhibition)	Inhibition (“Inhibition” refers to greater than 50% inhibition)	Inhibition (“Inhibition” refers to greater than 50% inhibition)	Inhibition (“Inhibition” refers to greater than 50% inhibition)	Inhibition (“Inhibition” refers to greater than 50% inhibition)	Inhibition (“Inhibition” refers to greater than 50% inhibition)	Inhibition (“Inhibition” refers to greater than 50% inhibition)	Inhibition (“Inhibition” refers to greater than 50% inhibition)	Inhibition (“Inhibition” refers to greater than 50% inhibition)	Inhibition (“Inhibition” refers to greater than 50% inhibition)	Inhibition (“Inhibition” refers to greater than 50% inhibition)	Inhibition (“Inhibition” refers to greater than 50% inhibition)	Inhibition (“Inhibition” refers to greater than 50% inhibition)	Inhibition (“Inhibition” refers to greater than 50% inhibition)	Inhibition (“Inhibition” refers to greater than 50% inhibition)	1 to 25	KINOMEscan competition binding, inhibition of NEK5 (select kinases): Inhibition (“Inhibition” refers to greater than 50% inhibition); KINOMEscan competition binding, inhibition of PIK3C2B (select kinases): Inhibition (“Inhibition” refers to greater than 50% inhibition); KINOMEscan competition binding, inhibition of RIOK2 (select kinases): Inhibition (“Inhibition” refers to greater than 50% inhibition); KINOMEscan competition binding, inhibition of RIPK1 (select kinases): No Inhibition (“No Inhibition” refers to less than 50% inhibition); KINOMEscan competition binding, inhibition of RIPK2 (select kinases): Inhibition (“Inhibition” refers to greater than 50% inhibition); KINOMEscan competition binding, inhibition of RIPK5 (select kinases): Inhibition (“Inhibition” refers to greater than 50% inhibition); KINOMEscan competition binding, inhibition of TESK1 (select kinases): Inhibition (“Inhibition” refers to greater than 50% inhibition); KINOMEscan competition binding, inhibition of TIE2 (select kinases): Inhibition (“Inhibition” refers to greater than 50% inhibition); KINOMEscan competition binding, inhibition of TRKA (select kinases): Inhibition (“Inhibition” refers to greater than 50% inhibition); KINOMEscan competition binding, inhibition of TRKB (select kinases): Inhibition (“Inhibition” refers to greater than 50% inhibition); KINOMEscan competition binding, inhibition of TRKC (select kinases): Inhibition (“Inhibition” refers to greater than 50% inhibition); KINOMEscan competition binding, inhibition of VRK2 (select kinases): Inhibition (“Inhibition” refers to greater than 50% inhibition); KINOMEscan competition binding, inhibition of YANK1 (select kinases): Inhibition (“Inhibition” refers to greater than 50% inhibition); KINOMEscan competition binding, inhibition of YANK2 (select kinases): Inhibition (“Inhibition” refers to greater than 50% inhibition); KINOMEscan competition binding, inhibition of YSK4 (select kinases): Inhibition (“Inhibition” refers to greater than 50% inhibition)

— patent US20220356186A1, “PERK INHIBITING PYRROLOPYRIMIDINE COMPOUNDS” (HiberCell, Inc., priority 2019, published 2022)
